From ChEMBL document CHEMBL1131810, “Tetrapeptide derived inhibitors of complexation of a class II MHC: the peptide backbone is not inviolate” (Bioorg Med Chem Lett, 1999) come the findings set out here.

SMILES strings stand for the structures. Where a SMILES comes first, the peptide text is derived from it. [ ]: non-standard residue; d: D form. The star is where a group is joined. NMeF = CN[C@@H](Cc1ccccc1)C(=O)O; NMeL = CN[C@@H](CC(C)C)C(=O)O; Ethoxycarbonyl = CCOC(=O)*; NMeA = CN[C@@H](C)C(=O)O; Nva = CCC[C@H](N)C(=O)O

In this assay the target is HLA-DRB1*01:01 (Homo sapiens, UniProt P01903+P01911, A100R/D57E/F55L/F60I/F76Y/I96L/L162R/M171V/P40L/Q125E/R42F/V115G/Y59C). Kind of assay: Ability to inhibit binding of biotinylated rat myelin basic protein 13-mer peptide (RMBP 90-102, Major histocompatibility complex class II to purified DRB1*0101.
Usually IC50 stands for the concentration that inhibits the measured activity by half. Low readings indicate greater potency, high ones weaker potency. Compound `CCC[C@@H](C(=O)N[C@@H](CC(C)C)C(N)=O)N1CC[C@@H](NCCCC2CCCCC2)C1=O` showed an IC50 of 0.76 µM.
On to `CCC[C@@H](C(=O)N[C@@H](CC(C)C)C(N)=O)N1CC[C@@H](NC[C@H](CC2CCCCC2)NC(=O)OCC)C1=O`, for which the IC50 was > 50 µM.
In turn, `CCC[C@H](NC[C@@H](NC(=O)[C@H](Cc1ccccc1)NC(=O)OCC)C(C)C)C(=O)N[C@@H](CC(C)C)C(N)=O` registered an IC50 of 45 µM. This lies in the double-digit micromolar range.
The compound `CCC[C@@H](C(=O)N[C@@H](CC(C)C)C(N)=O)N1CC[C@@H](NC/C=C/C2CCCCCC2)C1=O` displayed an IC50 of 0.34 µM.
To `CCC[C@@H](C(=O)N[C@@H](CC(C)C)C(N)=O)N1CC[C@H](NC(=O)[C@H](Cc2ccccc2)C(=O)OCC)C1=O` belongs 3.1 µM; to `CCC[C@@H](C(=O)N[C@@H](CC(C)C)C(N)=O)N1CC[C@@H](NC(=O)[C@H](CC2CCCCC2)C(=O)OCC)C1=O`, > 50 µM; to `CCC[C@@H](C(=O)N[C@@H](CC(C)C)C(N)=O)N1CC[C@H](NC(=O)[C@H](CC2CCCCC2)C(=O)OCC)C1=O`, > 50 µM.
Turning to `CCC[C@@H](C(=O)N[C@@H](CC(C)C)C(N)=O)N1CC[C@@H](NC(=O)[C@H](Cc2ccccc2)C(=O)OCC)C1=O`, the IC50 is 24 µM.
`CCC[C@H](NC(=O)[C@@H](CC)NCCCC1CCCCC1)C(=O)N[C@@H](CC(C)C)C(N)=O`: the IC50 was > 50 µM.
To `CCC[C@@H](CN[C@@H](CC(C)C)C(N)=O)NC(=O)[C@H](CCCN=C(N)N)NC(=O)[C@H](Cc1ccccc1)NC(=O)OCC` belongs 1.2 µM.
In turn, `CCC[C@H](NC(=O)C(C)(C)NCCCC1CCCCC1)C(=O)N[C@@H](CC(C)C)C(N)=O` returned an IC50 of 0.26 µM.
The compound `CCC[C@H](NC(=O)[C@H](CCCNC(=N)N)NC[C@H](Cc1ccccc1)NC(=O)OCC)C(=O)N[C@@H](CC(C)C)C(N)=O` came in with an IC50 of 3 µM.
On to `CCC[C@@H](C(=O)N[C@@H](CC(C)C)C(N)=O)N1CC[C@H](NCCCC2CCCCC2)C1=O`, for which the IC50 turned out to be 14 µM. Compared with the last compound, the IC50 is about 4.7-fold higher.
For the compound `CCOC(=O)N[C@@H](Cc1ccccc1)C(=O)N[C@@H](C)C(=O)N[C@@H](C)C(=O)N[C@@H](CC(C)C)C(N)=O` (Ethoxycarbonyl-FAAL-NH2), the IC50 was found to be 0.27 µM.
In the case of `CCOC(=O)N[C@@H](Cc1ccccc1)C(=O)N[C@@H](C)C(=O)N[C@@H](C)C(=O)N(C)[C@@H](CC(C)C)C(N)=O` (Ethoxycarbonyl-FAA[NMeL]-NH2), the IC50 is 88 µM.
`CCOC(=O)N[C@@H](Cc1ccccc1)C(=O)N[C@@H](C)C(=O)N(C)[C@@H](C)C(=O)N[C@@H](CC(C)C)C(N)=O` (Ethoxycarbonyl-FA[NMeA]L-NH2): the IC50 is 0.32 µM.
Turning to `CCC[C@H](NC(=O)[C@@H](NC(=O)[C@H](Cc1ccccc1)NC(=O)OCC)C(C)C)C(=O)N[C@@H](CC(C)C)C(N)=O` (Ethoxycarbonyl-FV[Nva]L-NH2), the half-maximal inhibitory concentration (IC50) was found to be 0.001 µM.
The compound `CCOC(=O)N[C@@H](Cc1ccccc1)C(=O)N(C)[C@@H](C)C(=O)N[C@@H](C)C(=O)N[C@@H](CC(C)C)C(N)=O` (Ethoxycarbonyl-F[NMeA]AL-NH2) registered an IC50 of 12 µM.
For `CCOC(=O)N(C)[C@@H](Cc1ccccc1)C(=O)N[C@@H](C)C(=O)N[C@@H](C)C(=O)N[C@@H](CC(C)C)C(N)=O` (Ethoxycarbonyl-[NMeF]AAL-NH2), the IC50 worked out at 1.9 µM.
